According to PubChem BioAssay (NCI):
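Method: 48-hour compound exposure of cells in 96-well plates, five concentrations, linear interpolation of endpoints. TGI denotes the concentration required for complete inhibition of growth.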

Assays:
Assay in all cases: growth of human tumour cells (NCI), 48 h
SF-539 CNS = tested on: SF-539 CNS
HOP-18 NSCLC = tested on: HOP-18 NSCLC
OVCAR-4 ovarian = tested on: OVCAR-4 ovarian
TK-10 renal = tested on: TK-10 renal
HT29 colon = tested on: HT29 colon
RXF 393 renal = tested on: RXF 393 renal
SN12C renal = tested on: SN12C renal
DMS 273 small cell lung = tested on: DMS 273 small cell lung
SR leukemia = tested on: SR leukemia
HCC-2998 colon = tested on: HCC-2998 colon
SK-MEL-2 melanoma = tested on: SK-MEL-2 melanoma
SNB-75 CNS = tested on: SNB-75 CNS
CCRF-CEM leukemia = tested on: CCRF-CEM leukemia
M14 melanoma = tested on: M14 melanoma
RPMI-8226 leukemia = tested on: RPMI-8226 leukemia
NCI-H522 lung = tested on: NCI-H522 lung
SK-MEL-28 melanoma = tested on: SK-MEL-28 melanoma
KM12 colon = tested on: KM12 colon
LXFL 529 NSCLC = tested on: LXFL 529 NSCLC
NCI-H460 lung = tested on: NCI-H460 lung
UACC-62 melanoma = tested on: UACC-62 melanoma
786-0 renal = tested on: 786-0 renal
K-562 leukemia = tested on: K-562 leukemia
DLD-1 colon = tested on: DLD-1 colon
COLO 205 colon = tested on: COLO 205 colon
MOLT-4 leukemia = tested on: MOLT-4 leukemia
HOP-62 NSCLC = tested on: HOP-62 NSCLC
OVCAR-8 ovarian = tested on: OVCAR-8 ovarian
KM20L2 colon = tested on: KM20L2 colon
NCI-H23 lung = tested on: NCI-H23 lung
UO-31 renal = tested on: UO-31 renal
HL-60(TB) leukemia = tested on: HL-60(TB) leukemia
SNB-19 CNS = tested on: SNB-19 CNS
DMS 114 small cell lung = tested on: DMS 114 small cell lung
HCT-116 colon = tested on: HCT-116 colon
CAKI-1 renal = tested on: CAKI-1 renal
EKVX NSCLC = tested on: EKVX NSCLC
SF-295 CNS = tested on: SF-295 CNS
MALME-3M melanoma = tested on: MALME-3M melanoma
SW-620 colon = tested on: SW-620 colon
SF-268 CNS = tested on: SF-268 CNS
XF 498 CNS = tested on: XF 498 CNS
A549 NSCLC = tested on: A549 NSCLC
OVCAR-3 ovarian = tested on: OVCAR-3 ovarian
U251 CNS = tested on: U251 CNS
UACC-257 melanoma = tested on: UACC-257 melanoma
HCT-15 colon = tested on: HCT-15 colon
HOP-92 NSCLC = tested on: HOP-92 NSCLC
ACHN renal = tested on: ACHN renal
NCI-H226 lung = tested on: NCI-H226 lung
IGROV1 ovarian = tested on: IGROV1 ovarian
M19-MEL melanoma = tested on: M19-MEL melanoma
LOX IMVI melanoma = tested on: LOX IMVI melanoma
SK-MEL-5 melanoma = tested on: SK-MEL-5 melanoma
SNB-78 CNS = tested on: SNB-78 CNS
A498 renal = tested on: A498 renal
SK-OV-3 ovarian = tested on: SK-OV-3 ovarian
OVCAR-5 ovarian = tested on: OVCAR-5 ovarian

Structure (SMILES): O=C1c2ccccc2C(=O)c2[nH]c(Cc3ccccc3F)nc21
- TGI (SF-539 CNS): 91.1 µM
- TGI (HOP-18 NSCLC): > 100 µM
- TGI (OVCAR-4 ovarian): > 100 µM
- TGI (TK-10 renal): 88.3 µM
- TGI (HT29 colon): > 100 µM
- TGI (RXF 393 renal): 75.5 µM
- TGI (SN12C renal): > 100 µM
- TGI (DMS 273 small cell lung): > 100 µM
- TGI (SR leukemia): > 100 µM
- TGI (HCC-2998 colon): > 100 µM
- TGI (SK-MEL-2 melanoma): > 100 µM
- TGI (SNB-75 CNS): > 100 µM
- TGI (CCRF-CEM leukemia): > 100 µM
- TGI (M14 melanoma): > 100 µM
- TGI (RPMI-8226 leukemia): > 100 µM
- TGI (NCI-H522 lung): 70.9 µM
- TGI (SK-MEL-28 melanoma): > 100 µM
- TGI (KM12 colon): > 100 µM
- TGI (LXFL 529 NSCLC): > 100 µM
- TGI (NCI-H460 lung): > 100 µM
- TGI (UACC-62 melanoma): > 100 µM
- TGI (786-0 renal): > 100 µM
- TGI (K-562 leukemia): > 100 µM
- TGI (DLD-1 colon): 82.5 µM
- TGI (COLO 205 colon): > 100 µM
- TGI (MOLT-4 leukemia): > 100 µM
- TGI (HOP-62 NSCLC): > 100 µM
- TGI (OVCAR-8 ovarian): > 100 µM
- TGI (KM20L2 colon): > 100 µM
- TGI (NCI-H23 lung): > 100 µM
- TGI (UO-31 renal): > 100 µM
- TGI (HL-60(TB) leukemia): > 100 µM
- TGI (SNB-19 CNS): > 100 µM
- TGI (DMS 114 small cell lung): > 100 µM
- TGI (HCT-116 colon): > 100 µM
- TGI (CAKI-1 renal): > 100 µM
- TGI (EKVX NSCLC): > 100 µM
- TGI (SF-295 CNS): > 100 µM
- TGI (MALME-3M melanoma): > 100 µM
- TGI (SW-620 colon): > 100 µM
- TGI (SF-268 CNS): > 100 µM
- TGI (XF 498 CNS): > 100 µM
- TGI (A549 NSCLC): > 100 µM
- TGI (OVCAR-3 ovarian): 39 µM
- TGI (U251 CNS): > 100 µM
- TGI (UACC-257 melanoma): > 100 µM
- TGI (HCT-15 colon): > 100 µM
- TGI (HOP-92 NSCLC): > 100 µM
- TGI (ACHN renal): > 100 µM
- TGI (NCI-H226 lung): > 100 µM

Structure (SMILES): CCOC(=O)COc1ccc(OC)c2c1C(=O)CCC2
- TGI (SF-539 CNS): > 100 µM
- TGI (HOP-18 NSCLC): > 100 µM
- TGI (OVCAR-4 ovarian): > 100 µM
- TGI (TK-10 renal): > 100 µM
- TGI (HT29 colon): > 100 µM
- TGI (IGROV1 ovarian): > 100 µM
- TGI (M19-MEL melanoma): > 100 µM
- TGI (RXF 393 renal): > 100 µM
- TGI (SN12C renal): > 100 µM
- TGI (DMS 273 small cell lung): > 100 µM
- TGI (SNB-75 CNS): > 100 µM
- TGI (LOX IMVI melanoma): > 100 µM
- TGI (SK-MEL-5 melanoma): > 100 µM
- TGI (CCRF-CEM leukemia): > 100 µM
- TGI (M14 melanoma): > 100 µM
- TGI (RPMI-8226 leukemia): > 100 µM
- TGI (SK-MEL-28 melanoma): > 100 µM
- TGI (LXFL 529 NSCLC): > 100 µM
- TGI (NCI-H460 lung): > 100 µM
- TGI (UACC-62 melanoma): > 100 µM
- TGI (K-562 leukemia): > 100 µM
- TGI (COLO 205 colon): > 100 µM
- TGI (SNB-78 CNS): > 100 µM
- TGI (MOLT-4 leukemia): > 100 µM
- TGI (A498 renal): > 100 µM
- TGI (OVCAR-8 ovarian): > 100 µM
- TGI (KM20L2 colon): > 100 µM
- TGI (NCI-H23 lung): > 100 µM
- TGI (SK-OV-3 ovarian): > 100 µM
- TGI (HL-60(TB) leukemia): > 100 µM
- TGI (SNB-19 CNS): > 100 µM
- TGI (DMS 114 small cell lung): > 100 µM
- TGI (HCT-116 colon): > 100 µM
- TGI (EKVX NSCLC): > 100 µM
- TGI (SF-295 CNS): > 100 µM
- TGI (SW-620 colon): > 100 µM
- TGI (XF 498 CNS): > 100 µM
- TGI (A549 NSCLC): > 100 µM
- TGI (OVCAR-3 ovarian): > 100 µM
- TGI (U251 CNS): > 100 µM
- TGI (UACC-257 melanoma): > 100 µM
- TGI (HCT-15 colon): > 100 µM
- TGI (ACHN renal): > 100 µM

Structure (SMILES): CCN(C(C)=N)c1ccccc1
- TGI (SF-539 CNS): > 100 µM
- TGI (HOP-18 NSCLC): > 100 µM
- TGI (OVCAR-4 ovarian): > 100 µM
- TGI (TK-10 renal): > 100 µM
- TGI (IGROV1 ovarian): > 100 µM
- TGI (M19-MEL melanoma): > 100 µM
- TGI (RXF 393 renal): > 100 µM
- TGI (SN12C renal): > 100 µM
- TGI (HCC-2998 colon): > 100 µM
- TGI (SK-MEL-2 melanoma): > 100 µM
- TGI (SNB-75 CNS): > 100 µM
- TGI (LOX IMVI melanoma): > 100 µM
- TGI (SK-MEL-5 melanoma): > 100 µM
- TGI (CCRF-CEM leukemia): > 100 µM
- TGI (M14 melanoma): > 100 µM
- TGI (RPMI-8226 leukemia): > 100 µM
- TGI (NCI-H522 lung): > 100 µM
- TGI (SK-MEL-28 melanoma): > 100 µM
- TGI (KM12 colon): > 100 µM
- TGI (LXFL 529 NSCLC): > 100 µM
- TGI (NCI-H460 lung): > 100 µM
- TGI (UACC-62 melanoma): > 100 µM
- TGI (786-0 renal): > 100 µM
- TGI (K-562 leukemia): > 100 µM
- TGI (DLD-1 colon): > 100 µM
- TGI (COLO 205 colon): > 100 µM
- TGI (SNB-78 CNS): > 100 µM
- TGI (MOLT-4 leukemia): > 100 µM
- TGI (A498 renal): > 100 µM
- TGI (HOP-62 NSCLC): > 100 µM
- TGI (OVCAR-8 ovarian): > 100 µM
- TGI (KM20L2 colon): > 100 µM
- TGI (NCI-H23 lung): > 100 µM
- TGI (SK-OV-3 ovarian): > 100 µM
- TGI (UO-31 renal): > 100 µM
- TGI (HL-60(TB) leukemia): > 100 µM
- TGI (SNB-19 CNS): > 100 µM
- TGI (DMS 114 small cell lung): > 100 µM
- TGI (HCT-116 colon): > 100 µM
- TGI (CAKI-1 renal): > 100 µM
- TGI (EKVX NSCLC): > 100 µM
- TGI (SF-295 CNS): > 100 µM
- TGI (MALME-3M melanoma): > 100 µM
- TGI (SW-620 colon): > 100 µM
- TGI (OVCAR-5 ovarian): > 100 µM
- TGI (SF-268 CNS): > 100 µM
- TGI (XF 498 CNS): > 100 µM
- TGI (A549 NSCLC): > 100 µM
- TGI (OVCAR-3 ovarian): > 100 µM
- TGI (U251 CNS): > 100 µM
- TGI (UACC-257 melanoma): 44.3 µM
- TGI (HCT-15 colon): > 100 µM
- TGI (HOP-92 NSCLC): > 100 µM
- TGI (ACHN renal): > 100 µM
- TGI (NCI-H226 lung): > 100 µM
